Our source for the TGI values is PubChem BioAssay (NCI).

Among the test systems are OVCAR-5 ovarian; PC-3 prostate; A498 renal; HCC-2998 colon; CCRF-CEM leukemia; ACHN renal; SF-295 CNS; SR leukemia; HCT-15 colon; HCT-116 colon; MDA-N; OVCAR-4 ovarian; RPMI-8226 leukemia; T-47D breast; SNB-75 CNS; EKVX NSCLC; MDA-MB-231 breast; UACC-62 melanoma; NCI-H460 lung; NCI-H226 lung.
Common to all, as to assay: NCI-60 cell line screen, 48 h

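Briefly, cells in 96-well plates were exposed to five compound concentrations for 48 h, and endpoints were estimated by linear interpolation. TGI: concentration producing complete growth inhibition.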

`c1ccc(C2C3=C(CCCC3)Nc3nc4cc5ccccc5cc4n32)cc1` (stereo not drawn): the TGI in the test with OVCAR-5 ovarian, with PC-3 prostate, with A498 renal, in the test on HCC-2998 colon, with CCRF-CEM leukemia and in the test with ACHN renal was > 100 µM each time. The TGI in the test with SF-295 CNS, in the test on SR leukemia, in the test on HCT-15 colon, with HCT-116 colon, with MDA-N and with OVCAR-4 ovarian was > 100 µM in each case. Besides, the TGI in the test with RPMI-8226 leukemia, in the test on T-47D breast, with SNB-75 CNS, in the test with EKVX NSCLC, with MDA-MB-231 breast and in the test on UACC-62 melanoma was > 100 µM throughout. Further, the TGI with NCI-H460 lung and in the test on NCI-H226 lung was > 100 µM throughout.
As for `CC(C)[Si](OC1=C(C(=O)Nc2ccccc2Cl)CCCCC1)(C(C)C)C(C)C`, the TGI in the test with OVCAR-5 ovarian was > 100 µM; in the test on PC-3 prostate it was > 100 µM; in the test with A498 renal, > 100 µM; with HCC-2998 colon it was > 100 µM; in the test with CCRF-CEM leukemia it was 12.3 µM; in the test with ACHN renal, > 100 µM. Besides, the TGI in the test on SF-295 CNS, in the test on SR leukemia, with HCT-15 colon, in the test with HCT-116 colon, with MDA-N and with OVCAR-4 ovarian was > 100 µM throughout. For the same compound, the TGI in the test with RPMI-8226 leukemia, in the test with T-47D breast, in the test with SNB-75 CNS, with EKVX NSCLC, in the test with MDA-MB-231 breast and in the test on UACC-62 melanoma was > 100 µM throughout. In addition, the TGI in the test on NCI-H460 lung and in the test on NCI-H226 lung was > 100 µM in each case.
With `COC(=O)C1Cc2cccc(C)c2C1` (stereo not drawn), the TGI with OVCAR-5 ovarian, with PC-3 prostate, in the test with A498 renal, in the test on HCC-2998 colon, with CCRF-CEM leukemia and in the test on ACHN renal was > 100 µM throughout. The TGI in the test on SF-295 CNS, in the test with SR leukemia, in the test with HCT-15 colon, with HCT-116 colon, with MDA-N and in the test on OVCAR-4 ovarian was > 100 µM in each case. Moreover, the TGI in the test on RPMI-8226 leukemia, with T-47D breast, with SNB-75 CNS, with EKVX NSCLC, in the test with MDA-MB-231 breast and in the test with UACC-62 melanoma was > 100 µM each time. The TGI in the test with NCI-H460 lung and in the test with NCI-H226 lung was > 100 µM each time.
In the case of `Cc1cc2c(c(C=Nc3ccc([N+](=O)[O-])cc3)c1)OC1(C=C2)Oc2ccccc2C(=O)N1C` (stereo not drawn), the TGI with OVCAR-5 ovarian came to 82.5 µM; with PC-3 prostate, 44.4 µM; in the test on A498 renal it was 61.6 µM; with HCC-2998 colon it was 36.2 µM; in the test with CCRF-CEM leukemia it was 39.8 µM; in the test with ACHN renal it was 50.5 µM. Also, the TGI with SF-295 CNS was 77.1 µM; with SR leukemia it was 55.3 µM; in the test with HCT-15 colon, 39.4 µM; in the test with HCT-116 colon it was 30.9 µM; in the test on MDA-N, > 100 µM; in the test with OVCAR-4 ovarian, 64.2 µM. The TGI in the test with RPMI-8226 leukemia was 93.1 µM; with T-47D breast, 26.9 µM; with SNB-75 CNS it was 51.8 µM; in the test with EKVX NSCLC it was 43.6 µM; with MDA-MB-231 breast, 45 µM; in the test on UACC-62 melanoma it was 34.9 µM. Moreover, the TGI in the test with NCI-H460 lung is 42.7 µM; in the test with NCI-H226 lung it was 46 µM.
On to `CCOC(=O)c1sc2nc(SC)nc3c2c1N=CN3c1ccccc1Cl`, for which the TGI in the test on OVCAR-5 ovarian was > 100 µM; with PC-3 prostate, > 100 µM; in the test with A498 renal, 56.3 µM; in the test on HCC-2998 colon, > 100 µM; in the test on CCRF-CEM leukemia it was > 100 µM; in the test on ACHN renal, 55.3 µM. In addition, the TGI is > 100 µM with SF-295 CNS; 89.9 µM in the test with SR leukemia; > 100 µM in the test on HCT-15 colon; > 100 µM in the test with HCT-116 colon; > 100 µM with MDA-N; 42.4 µM in the test with OVCAR-4 ovarian. Also, the TGI in the test with RPMI-8226 leukemia was > 100 µM; with T-47D breast, > 100 µM; with SNB-75 CNS, 36.3 µM; in the test with EKVX NSCLC it was > 100 µM; with MDA-MB-231 breast, > 100 µM; in the test with UACC-62 melanoma, > 100 µM. In addition, the TGI in the test with NCI-H460 lung and in the test with NCI-H226 lung was > 100 µM throughout.
Regarding `C=CC1ON(C)CCc2cc(OC)c(OC)cc21` (stereo not drawn), the TGI in the test with OVCAR-5 ovarian, in the test with PC-3 prostate, with A498 renal, with HCC-2998 colon, in the test on CCRF-CEM leukemia and in the test on ACHN renal was > 100 µM throughout. For the same compound, the TGI in the test on SF-295 CNS, in the test on SR leukemia, in the test with HCT-15 colon, in the test with HCT-116 colon, in the test with MDA-N and in the test on RPMI-8226 leukemia was > 100 µM each time. For the same compound, the TGI with T-47D breast, in the test with SNB-75 CNS, in the test with EKVX NSCLC, in the test with MDA-MB-231 breast, with UACC-62 melanoma and in the test with NCI-H460 lung was > 100 µM each time. In addition, in the test on NCI-H226 lung, the TGI is > 100 µM.
For `Cc1cn(C2CC(O)C(Cn3cc(Cn4ncc(=O)[nH]c4=O)nn3)O2)c(=O)[nH]c1=O` (stereo not drawn), the TGI in the test on OVCAR-5 ovarian, in the test on PC-3 prostate, with A498 renal, with HCC-2998 colon, with CCRF-CEM leukemia and in the test with ACHN renal was > 100 µM throughout. Moreover, the TGI in the test with SF-295 CNS, with SR leukemia, with HCT-15 colon, in the test with HCT-116 colon, in the test with MDA-N and in the test on OVCAR-4 ovarian was > 100 µM each time. The TGI in the test on RPMI-8226 leukemia, in the test on T-47D breast, in the test with SNB-75 CNS, in the test with EKVX NSCLC, in the test with MDA-MB-231 breast and in the test on UACC-62 melanoma was > 100 µM each time. Moreover, the TGI in the test on NCI-H226 lung was > 100 µM.
